Test results from publication PMC7000700, “RyR1-targeted drug discovery pipeline integrating FRET-based high-throughput screening and human myofiber dynamic Ca^2+ assays” (Scientific Reports, 2020).

Columns and labels:
RyR1 [1] = target: T1, RyR1 (Sus scrofa, UniProt P16960); experiment: F-FKBP binding to RyR1 by co-sedimentation with skeletal SR membranes; design: using co-sedimentation with pig skeletal and cardiac SR membranes; from tissue; host or cells: pig skeletal muscle (heavy SR membranes); species or system pig; details: RyR1, 10 μM Hit, 30 nM Ca2+, 5 mM GSSG or GSH
T1 sequence (P16960 whole entry): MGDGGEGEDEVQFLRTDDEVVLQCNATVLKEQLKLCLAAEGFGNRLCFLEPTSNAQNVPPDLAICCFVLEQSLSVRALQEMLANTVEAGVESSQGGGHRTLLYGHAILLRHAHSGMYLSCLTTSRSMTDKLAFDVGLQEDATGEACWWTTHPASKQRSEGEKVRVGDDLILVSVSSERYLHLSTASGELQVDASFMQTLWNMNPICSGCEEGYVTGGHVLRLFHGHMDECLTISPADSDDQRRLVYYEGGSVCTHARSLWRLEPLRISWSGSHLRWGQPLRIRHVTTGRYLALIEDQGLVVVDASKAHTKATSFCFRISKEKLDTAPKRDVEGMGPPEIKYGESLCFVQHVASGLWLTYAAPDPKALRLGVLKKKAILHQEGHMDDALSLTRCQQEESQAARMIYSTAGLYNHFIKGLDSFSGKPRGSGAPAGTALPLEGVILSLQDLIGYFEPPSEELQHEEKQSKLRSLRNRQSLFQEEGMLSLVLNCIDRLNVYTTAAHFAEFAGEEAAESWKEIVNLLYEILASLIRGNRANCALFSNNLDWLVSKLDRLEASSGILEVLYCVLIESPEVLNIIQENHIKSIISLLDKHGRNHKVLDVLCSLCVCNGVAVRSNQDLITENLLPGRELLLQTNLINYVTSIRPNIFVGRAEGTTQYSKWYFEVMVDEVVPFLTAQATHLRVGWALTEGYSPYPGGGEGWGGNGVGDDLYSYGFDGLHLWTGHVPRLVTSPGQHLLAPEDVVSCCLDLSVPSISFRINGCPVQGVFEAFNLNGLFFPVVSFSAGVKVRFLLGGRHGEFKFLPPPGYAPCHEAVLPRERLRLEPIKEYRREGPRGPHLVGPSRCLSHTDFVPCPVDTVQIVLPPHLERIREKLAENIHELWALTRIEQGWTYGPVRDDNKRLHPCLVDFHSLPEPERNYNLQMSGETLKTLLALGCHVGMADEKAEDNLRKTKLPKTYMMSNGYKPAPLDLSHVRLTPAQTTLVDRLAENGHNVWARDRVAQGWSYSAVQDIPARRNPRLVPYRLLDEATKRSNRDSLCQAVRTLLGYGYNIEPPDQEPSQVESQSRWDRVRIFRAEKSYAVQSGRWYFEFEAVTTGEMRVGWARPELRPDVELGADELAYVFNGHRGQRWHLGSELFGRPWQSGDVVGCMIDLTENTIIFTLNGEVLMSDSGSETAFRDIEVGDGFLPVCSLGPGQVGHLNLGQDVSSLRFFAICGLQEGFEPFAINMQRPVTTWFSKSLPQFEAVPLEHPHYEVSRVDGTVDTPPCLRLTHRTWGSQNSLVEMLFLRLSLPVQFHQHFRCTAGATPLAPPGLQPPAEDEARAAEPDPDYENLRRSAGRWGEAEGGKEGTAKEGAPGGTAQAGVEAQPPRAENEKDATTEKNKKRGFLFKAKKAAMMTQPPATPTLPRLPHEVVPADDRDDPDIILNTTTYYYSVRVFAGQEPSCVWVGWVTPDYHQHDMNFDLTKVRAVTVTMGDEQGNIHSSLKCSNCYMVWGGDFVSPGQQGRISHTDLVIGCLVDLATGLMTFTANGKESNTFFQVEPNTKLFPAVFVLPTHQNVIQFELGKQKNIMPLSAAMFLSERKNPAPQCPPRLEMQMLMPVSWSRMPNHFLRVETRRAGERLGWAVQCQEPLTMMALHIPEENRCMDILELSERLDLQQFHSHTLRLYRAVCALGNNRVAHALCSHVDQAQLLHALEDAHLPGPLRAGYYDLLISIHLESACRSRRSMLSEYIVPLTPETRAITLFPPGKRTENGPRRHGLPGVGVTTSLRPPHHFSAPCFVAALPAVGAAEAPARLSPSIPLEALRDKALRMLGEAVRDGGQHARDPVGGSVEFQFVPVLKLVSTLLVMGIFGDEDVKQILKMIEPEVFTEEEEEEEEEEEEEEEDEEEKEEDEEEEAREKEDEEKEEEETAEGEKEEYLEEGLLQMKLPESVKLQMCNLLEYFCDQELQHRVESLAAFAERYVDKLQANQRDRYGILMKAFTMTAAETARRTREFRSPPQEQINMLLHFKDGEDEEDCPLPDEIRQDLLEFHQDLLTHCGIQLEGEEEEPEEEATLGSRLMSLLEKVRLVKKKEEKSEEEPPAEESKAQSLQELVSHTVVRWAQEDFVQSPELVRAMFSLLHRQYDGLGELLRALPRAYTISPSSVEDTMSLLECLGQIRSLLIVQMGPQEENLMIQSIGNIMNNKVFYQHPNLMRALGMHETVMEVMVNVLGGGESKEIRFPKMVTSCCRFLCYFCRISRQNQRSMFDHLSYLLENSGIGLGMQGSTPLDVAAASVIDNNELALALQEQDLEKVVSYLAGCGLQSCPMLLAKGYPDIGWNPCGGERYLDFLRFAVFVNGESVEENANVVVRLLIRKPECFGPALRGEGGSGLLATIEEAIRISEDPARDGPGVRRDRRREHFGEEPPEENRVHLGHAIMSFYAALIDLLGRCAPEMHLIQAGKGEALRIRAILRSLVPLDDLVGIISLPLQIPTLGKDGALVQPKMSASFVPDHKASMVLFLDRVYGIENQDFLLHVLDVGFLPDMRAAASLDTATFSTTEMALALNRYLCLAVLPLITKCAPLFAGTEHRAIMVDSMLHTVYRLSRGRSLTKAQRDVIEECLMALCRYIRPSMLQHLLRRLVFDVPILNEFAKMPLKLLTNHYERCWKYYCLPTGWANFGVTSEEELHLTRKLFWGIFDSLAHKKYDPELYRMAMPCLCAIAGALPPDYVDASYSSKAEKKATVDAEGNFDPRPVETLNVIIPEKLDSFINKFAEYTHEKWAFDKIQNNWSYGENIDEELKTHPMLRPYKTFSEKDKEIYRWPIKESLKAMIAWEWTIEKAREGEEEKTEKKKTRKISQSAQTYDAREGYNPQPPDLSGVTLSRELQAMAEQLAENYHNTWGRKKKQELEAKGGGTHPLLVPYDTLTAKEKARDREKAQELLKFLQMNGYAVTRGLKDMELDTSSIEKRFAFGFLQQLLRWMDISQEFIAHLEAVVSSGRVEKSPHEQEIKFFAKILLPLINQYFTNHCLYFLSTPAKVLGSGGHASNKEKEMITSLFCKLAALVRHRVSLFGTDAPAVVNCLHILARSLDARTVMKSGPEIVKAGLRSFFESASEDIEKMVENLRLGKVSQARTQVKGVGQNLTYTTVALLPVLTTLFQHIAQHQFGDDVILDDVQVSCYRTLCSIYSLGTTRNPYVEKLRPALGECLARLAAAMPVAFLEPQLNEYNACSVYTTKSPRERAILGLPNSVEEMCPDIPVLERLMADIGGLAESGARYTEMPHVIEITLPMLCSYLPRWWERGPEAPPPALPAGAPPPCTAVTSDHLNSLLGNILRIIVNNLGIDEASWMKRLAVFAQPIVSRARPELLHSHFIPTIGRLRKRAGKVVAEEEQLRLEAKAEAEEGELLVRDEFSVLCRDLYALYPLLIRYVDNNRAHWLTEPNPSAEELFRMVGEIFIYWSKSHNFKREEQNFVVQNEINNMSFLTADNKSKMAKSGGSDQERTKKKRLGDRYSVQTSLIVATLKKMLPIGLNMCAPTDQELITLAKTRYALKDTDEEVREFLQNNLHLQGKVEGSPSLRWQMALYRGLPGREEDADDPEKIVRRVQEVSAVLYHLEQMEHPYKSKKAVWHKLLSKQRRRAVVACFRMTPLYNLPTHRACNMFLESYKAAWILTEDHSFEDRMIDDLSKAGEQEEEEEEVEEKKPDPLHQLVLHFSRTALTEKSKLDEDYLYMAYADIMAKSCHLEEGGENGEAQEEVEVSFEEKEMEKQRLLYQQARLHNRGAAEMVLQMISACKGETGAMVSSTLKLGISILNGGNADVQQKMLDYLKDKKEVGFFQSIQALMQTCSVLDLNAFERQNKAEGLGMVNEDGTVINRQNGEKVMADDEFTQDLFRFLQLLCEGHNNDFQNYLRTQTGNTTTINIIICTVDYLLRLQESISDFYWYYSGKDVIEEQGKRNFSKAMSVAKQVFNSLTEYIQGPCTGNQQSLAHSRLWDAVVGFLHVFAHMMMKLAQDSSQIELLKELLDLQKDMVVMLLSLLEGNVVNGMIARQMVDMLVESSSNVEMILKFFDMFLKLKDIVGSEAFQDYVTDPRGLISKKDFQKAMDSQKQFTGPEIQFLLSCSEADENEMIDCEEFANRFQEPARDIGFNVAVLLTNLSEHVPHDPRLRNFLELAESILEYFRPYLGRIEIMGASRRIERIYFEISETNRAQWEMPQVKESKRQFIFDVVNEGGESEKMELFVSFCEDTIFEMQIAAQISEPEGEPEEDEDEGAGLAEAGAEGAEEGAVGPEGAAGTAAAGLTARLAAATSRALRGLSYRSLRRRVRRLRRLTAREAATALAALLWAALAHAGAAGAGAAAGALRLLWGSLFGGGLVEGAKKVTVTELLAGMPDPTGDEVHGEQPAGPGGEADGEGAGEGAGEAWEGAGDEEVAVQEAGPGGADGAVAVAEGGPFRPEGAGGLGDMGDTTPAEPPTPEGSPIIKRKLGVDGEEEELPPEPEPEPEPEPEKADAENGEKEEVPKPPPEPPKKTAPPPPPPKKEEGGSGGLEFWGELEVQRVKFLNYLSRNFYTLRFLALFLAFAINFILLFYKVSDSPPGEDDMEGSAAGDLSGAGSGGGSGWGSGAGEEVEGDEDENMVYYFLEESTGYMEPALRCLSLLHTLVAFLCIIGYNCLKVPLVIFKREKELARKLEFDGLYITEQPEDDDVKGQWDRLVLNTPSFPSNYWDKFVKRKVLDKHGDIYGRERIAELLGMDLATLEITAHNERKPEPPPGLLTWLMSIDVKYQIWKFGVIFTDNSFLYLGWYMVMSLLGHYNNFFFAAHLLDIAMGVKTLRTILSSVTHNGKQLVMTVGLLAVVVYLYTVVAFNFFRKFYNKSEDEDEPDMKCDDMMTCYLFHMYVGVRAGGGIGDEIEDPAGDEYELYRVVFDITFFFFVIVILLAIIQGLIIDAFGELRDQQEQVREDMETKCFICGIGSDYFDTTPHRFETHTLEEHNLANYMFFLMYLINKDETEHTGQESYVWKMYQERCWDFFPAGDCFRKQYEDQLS
Procedure: (§1) The Hit-induced effect on FRET between D-FKBP and A-CaM most likely results from one or the combination of factors, including a shift in CaM and/or FKBP12.6 binding, and/or structure of the RyR complex that shifts the D-A distance. Under the same assay conditions as in the primary screen, we assessed the effect of 10 μM Hit on fluorescent FKBP12.6 (F-FKBP) binding to RyRs, using co-sedimentation with pig skeletal and cardiac SR membranes.
(§2) Supplementary Fig. 3 Effect of HTS Hits on F-FKBP binding to a) RyR1 in skeletal HSR membranes, and b) RyR2
(§3) in cardiac CSR membranes at 30 nM Ca2+ in the presence of 5 mM GSSG or GSH. Results are represented as individual
(§4) data points and means ± SEM, n = 4-5. *P < 0.05 by 2-sided Student’s unpaired t-test. […]

RyR2 [2] = target: T2, RyR2 (Sus scrofa, UniProt A0A5G2R1W3); experiment: F-FKBP binding to RyR2 by co-sedimentation with cardiac SR membranes; design: using co-sedimentation with pig skeletal and cardiac SR membranes; from tissue; host or cells: pig cardiac muscle (crude SR membranes); species or system pig; details: RyR2, 10 μM Hit, 30 nM Ca2+, 5 mM GSSG or GSH
Procedure: as §1, §2, §3, §4

RyR1 [3] = target: T1, RyR1; experiment: [3H]ryanodine binding to skeletal SR vesicles; assay type: biochemical, porcine; design: RyR1 in skeletal SR membranes, and RyR2 in cardiac SR membranes; from tissue; host or cells: porcine longissimus dorsi muscle (heavy SR vesicles); details: 0-20 μM compound, Supplementary Fig. 5
Procedure: To evaluate the functional impact of compounds identified through our FRET-based screen, we first used [^3H]ryanodine binding assays. The level of [^3H]ryanodine binding to RyRs in SR membranes is a well-established index of the RyR channel activity. Given the role of CaM binding in our FRET readout, we investigated whether CaM influences the functional effect of the Hit compounds by carrying out [^3H]ryanodine binding assays in the absence and presence of CaM (300 nM).
Crude sarcoplasmic reticulum (CSR) vesicles were isolated from porcine longissimus dorsi muscle and porcine cardiac left ventricle tissue by differential centrifugation of homogenized tissue. HSR vesicles, which are enriched in RyR1, were isolated by fractionation of crude skeletal SR vesicles using a discontinuous sucrose gradient. All vesicles were flash-frozen and stored at −80 °C. Immediately prior to the fluorescence or [^3H]ryanodine binding studies described below, the SR vesicles were stripped of residual endogenous CaM by incubation with a peptide derived from the CaM binding domain of myosin light chain kinase, followed by sedimentation.
In 96-well plates, HSR vesicles (1 mg/ml) and cardiac CSR vesicles (3 mg/mL) were pre-incubated with 0.02% DMSO or Hit compound, with or without 300 nM CaM, for 30 min at 22 °C in a solution containing 150 mM KCl, 5 mM GSSG, 1 µg/mL Aprotinin/Leupeptin, 1 mM EGTA, and 65 µM or 1.02 mM CaCl2 (as determined by MaxChelator to yield 30 nM or 30 μM of free Ca^2+, respectively), 0.1 mg/mL BSA and 20 mM K-PIPES (pH 7.0). Non-specific and maximal [^3H]ryanodine binding to SR were separately assessed by addition of 40 µM non-radioactively labeled ryanodine or 5 mM Adenylyl-imidodiphosphate, respectively. Such control samples were each distributed over 4 wells/plate. Binding of [^3H]ryanodine (10 and 15 nM for cardiac and skeletal SR, respectively) was determined after a 3-h incubation (37 °C) and filtration through grade GF/B Glass Microfiber filters (Brandel Inc., Gaithersburg, MD, US) using a Brandel Harvester. In 4 mL of Ecolite Scintillation cocktail (MP biomedicals, Solon, OH, USA), [^3H] on filter was counted using a Beckman LS6000 scintillation counter (Fullerton, CA).

RyR1 [4] = target: T1, RyR1; experiment: FLT-FRET between D-FKBP and A-CaM bound to RyR1 in skeletal SR membranes (HTS and dose-response); assay type: binding, porcine; design: RyR1 in skeletal SR membranes, and RyR2 in cardiac SR membranes; from tissue; host or cells: porcine longissimus dorsi muscle (heavy SR vesicles); details: for Influence of GSSG vs GSH on the FRET dose-response effect: 5 mM GSSG vs 5 mM GSH; for Effect on FRET: biphasic dose-response, isoform not stated; for Hit in primary FLT-FRET HTS of LOPAC (FRET altered by > 4 SD vs DMSO): 10 μM compound, 2-hour incubation, 5 mM GSSG, 0.3 μM A-CaM, 1536-well
Procedure: To confer compatibility with current HTS standards in industrial drug discovery facilities, we miniaturized our screening format from the previously established 384-well plates, requiring 50 μL sample per well[19], to 1536-well plates, requiring 5 μL sample per well. The complete 1280-compound library of pharmacologically active compounds (LOPAC) was applied as 5 nL/well in 40 columns of one 1536-well black-wall/black-bottom plate, with the remaining 8 columns loaded with 5 nL/well of DMSO, as no-drug controls. For each run of the screen, three plates were loaded with either (1) unlabeled HSR, or (2) HSR pre-incubated with donor-FKBP (D-FKBP; donor-only sample), or (3) donor-only sample that was additionally incubated with 0.3 μM acceptor-CaM (A-CaM) for 60 min prior to loading on the plate (donor-acceptor sample). This sub-saturating concentration of A-CaM was used to provide a readout that is sensitive to library compounds that may increase or decrease CaM binding affinity to RyR. To promote a homogenous population of RyR1 resembling that associated with myopathies, final assay conditions also included 30 nM Ca^2+ to represent resting (muscle relaxing) Ca^2+, and 5 mM oxidized glutathione (GSSG), which exaggerates the conditions associated with oxidative stress.
We acquired both FLT waveforms and fluorescence spectra, as previously described[19],[33],[34]. As previously observed, Hit effects were greatest following a 2-hour incubation with the library compounds (Supplementary Fig. 1a). As a result, all FRET results shown in Figs. 1 and 2, and Supplementary Fig. 2 are reported from the 2-hour incubation.
(§5) Necessary counter-screens to our pathological RyR1 conditions include evaluating compound effects in healthy conditions and on the cardiac isoform, RyR2. Using the same FRET assay as in HTS, we tested the dose response of key Hits from this screen and the previously HTS-identified RyR1 inhibitor, chloroxine, on healthy (5 mM GSH) and pathological (5 mM GSSG) conditions for both RyR1 in skeletal SR membranes, and RyR2 in cardiac SR membranes.
(§6) Skeletal HSR and cardiac CSR (0.4 mg/ml) membranes were independently pre-incubated with 60 nM D-FKBP, for 90 min, at 37 °C, in a solution containing 150 mM KCl, 5 mM GSH, 0.1 mg/mL BSA, 1 µg/mL Aprotinin/Leupeptin, 1 mM DTT and 20 mM PIPES (pH 7.0). To remove unbound D-FKBP, the SR membranes were spun down at 110,000 × g for 20 min, and then resuspended to 1 mg/mL (skeletal HSR) and 2 mg/mL (cardiac CSR) in binding buffer consisting of 150 mM KCl, 5 mM GSSG, 0.1 mg/mL BSA, 1μg/mL Aprotinin/Leupeptin and 20 mM PIPES, pH 7.0. These samples were then incubated with indicated [A-CaM] for 30 min at 22 °C in binding buffer containing 0.065 mM CaCl2 to give 30 nM free Ca^2+ in the presence of 1 mM EGTA (calculated by MaxChelator). This labeled SR sample was applied to the assay plates in 5 μL aliquots using a Multidrop™ Combi reagent dispenser (Thermo Scientific) with a standard-tube. An additional set of the assay plates were loaded with skeletal HSR or cardiac CSR labeled with only D-FKBP (no added A-CaM).
(§7) FLT measurements were conducted in a top-read FLT-PR designed and built by Fluorescence Innovations, Inc[33]. AF488 donor fluorescence was excited with a 473-nm microchip laser from Concepts Research Corporation (Belgium, WI), and emission was acquired with 490-nm long-pass and 517/20-nm band-pass filters (Semrock, Rochester, NY).
FLT waveforms for each well were fit based on a one-exponential decay function using least-squares minimization global-analysis software (Fluorescence Innovations, Inc.), as previously described[19],[33]. FRET efficiency (E) was determined as the fractional decrease of donor FLT (τD), due to the presence of acceptor fluorophore (τDA), using the following equation:1 E=1−τDA/τD, […]

[5] = tested on: RyR1 Ca^2+ leak in human skinned skeletal muscle fibers; experiment: t-system Ca2+ readout of RyR1 Ca2+ leak in human mechanically skinned skeletal muscle fibers; details: 1 mM
RyR2 [6] = target: T2, RyR2; experiment: FLT-FRET between D-FKBP and A-CaM bound to RyR2 in cardiac SR membranes (dose-response); assay type: binding, porcine; design: RyR1 in skeletal SR membranes, and RyR2 in cardiac SR membranes; from tissue; host or cells: porcine cardiac left ventricle (crude SR vesicles); details: RyR2, dose-response, 30 nM Ca2+
Procedure: as §5, §6, §7
FLT waveforms for each well were fit based on a one-exponential decay function using least-squares minimization global-analysis software (Fluorescence Innovations, Inc.), as previously described[19],[33]. FRET efficiency (E) was determined as the fractional decrease of donor FLT (τD), due to the presence of acceptor fluorophore (τDA), using the following equation:1 E=1−τDA/τD,

[7] = isoform not given (figures show skeletal and cardiac SR)

Compound | Influence of GSSG vs GSH on the FRET dose-response effect (RyR1 [4]; [7]) | Hit in primary FLT-FRET HTS of LOPAC (FRET altered by > 4 SD vs DMSO) (RyR1 [4]; 30 nM Ca2+) | further results
C=CC[C@@H]1/C=C(\C)C[C@H](C)C[C@H](OC)[C@H]2O[C@@](O)(C(=O)C(=O)N3CCCC[C@H]3C(=O)O[C@H](/C(C)=C/[C@@H]3CC[C@@H](O)[C@H](OC)C3)[C@H](C)[C@@H](O)CC1=O)[C@H](C)C[C@@H]2OC [tacrolimus] |  |  | Decrease of F-FKBP binding (RyR1 [1]): 20%; Decrease of F-FKBP binding (RyR2 [2]): 70%
Nc1ccc(-c2nc3ccc(-c4nc5ccc(N)cc5[nH]4)cc3[nH]2)cc1 [Ro 90–7501] | very similar FRET dose-response effects with GSSG or GSH |  | Effect on [3H]ryanodine binding (RyR1 [3]): inhibited; Effect on FRET (RyR1 [4]; micromolar [compound]): decreased; Effect on FRET (RyR1 [4]; sub-micromolar [compound]): increased
Oc1ccc2ccccc2c1SSc1c(O)ccc2ccccc12 [IPA-3] | more strongly decreased FRET in the presence of GSSG vs. GSH |  | 
CCCCNc1ccc(C(=O)OCCN(C)C)cc1 [Tetracaine, tetracaine] |  |  | RyR inhibition (reference level of leak assay) [5]: full RyR inhibition
Reactive Blue |  | observe | 
N.N.[Cl][Pt][Cl] [cisplatin] | more strongly decreased FRET in the presence of GSSG vs. GSH | decrease in FRET | 
CO[C@H]1C[C@@H]2CC[C@@H](C)[C@@](O)(O2)C(=O)C(=O)N2CCCC[C@H]2C(=O)O[C@H]([C@H](C)C[C@@H]2CC[C@@H](OC(=O)C(C)(CO)CO)[C@H](OC)C2)CC(=O)[C@H](C)/C=C(\C)[C@@H](O)[C@@H](OC)C(=O)[C@H](C)C[C@H](C)/C=C/C=C/C=C/1C [temsirolimus] |  | identified | Decrease of F-FKBP binding (RyR1 [1]): 20%; FRET reduction (RyR1 [4]; RyR1, dose-response, 30 nM Ca2+): ~ 10%; Decrease of F-FKBP binding (RyR2 [2]): 70%; FRET reduction (RyR2 [6]): 68–70%
CCN(CC)C(=S)SSC(=S)N(CC)CC [disulfiram] | more strongly decreased FRET in the presence of GSSG vs. GSH | identified | 
C[C@H](O)[C@H](O)[C@H]1CNc2nc(N)[nH]c(=O)c2N1 [(6 R)-BH4] |  | observe | 
O=C(O)C1=CC(=C(c2ccc(O)c(C(=O)O)c2)c2ccc(O)c(C(=O)O)c2)C=CC1=O [aurintricarboxylic acid] |  | observe | Effect on [3H]ryanodine binding (RyR1 [3]): potent inhibitor; Compound concentration at which FRET is abolished (RyR1 [4]; FRET dose-response, isoform not given (figures show skeletal and cardiac SR)): ≥ 10 µM
O=C(Nc1cccc(C(=O)Nc2ccc(S(=O)(=O)O)c3cc(S(=O)(=O)O)cc(S(=O)(=O)O)c23)c1)Nc1cccc(C(=O)Nc2ccc(S(=O)(=O)O)c3cc(S(=O)(=O)O)cc(S(=O)(=O)O)c23)c1 [NF023] |  | identified | 
CN=c1nc(-c2ccccc2)n(-c2ccccc2)s1 [SCH-202676] | more strongly decreased FRET in the presence of GSSG vs. GSH | observe | 
